Key:
[1] = DRUGMATRIX: beta-Lactamase enzyme inhibition (substrate: Nitrocefin); design: species or system Bacillus cereus; conditions: Not Active = under 50% inhibition at 10 µM
[2] = biological target: T1, Vasoactive intestinal polypeptide receptor 1 (Homo sapiens, UniProt P32241); type: cell membranes, Membrane; conditions: ht-29; note: in other assays of this panel Not Active means under 50% inhibition at 10 µM
T1 sequence (P32241 whole entry): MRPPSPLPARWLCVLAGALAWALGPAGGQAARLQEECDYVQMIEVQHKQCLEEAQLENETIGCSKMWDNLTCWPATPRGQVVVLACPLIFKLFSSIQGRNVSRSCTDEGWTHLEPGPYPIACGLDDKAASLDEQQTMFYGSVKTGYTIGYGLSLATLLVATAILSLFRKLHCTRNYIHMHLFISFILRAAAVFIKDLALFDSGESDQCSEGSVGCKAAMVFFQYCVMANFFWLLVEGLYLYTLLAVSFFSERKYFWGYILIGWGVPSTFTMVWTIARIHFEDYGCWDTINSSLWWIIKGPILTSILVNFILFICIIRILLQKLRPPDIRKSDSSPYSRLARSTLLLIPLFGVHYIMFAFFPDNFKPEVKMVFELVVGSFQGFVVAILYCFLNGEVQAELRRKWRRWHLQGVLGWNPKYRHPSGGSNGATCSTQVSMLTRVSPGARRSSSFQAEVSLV

[3] = DRUGMATRIX: Calcium Channel Type L, Phenylalkylamine radioligand binding (ligand: [3H] (-)-Desmethoxyverapamil (D-888)); type: cell membranes, Rattus norvegicus, Wistar, Brain, Membrane; conditions: Not Active = under 50% inhibition at 10 µM
[4] = biological target: Sodium-dependent dopamine transporter (Homo sapiens, UniProt Q01959); assay: DRUGMATRIX: Dopamine Transporter radioligand binding (ligand: [125I] RTI-55); type: cell membranes, CHO-K1, Membrane; conditions: cho-k1; Not Active = under 50% inhibition at 10 µM
Melanocortin receptor 3 = Melanocortin receptor 3 (Homo sapiens, UniProt P41968); type: cell membranes, Membrane; conditions: hek293; note: in other assays of this panel Not Active means under 50% inhibition at 10 µM
[5] = DRUGMATRIX: Nicotinic Acetylcholine radioligand binding (ligand: [125I] Epibatidine); type: cell membranes, Membrane; conditions: imr-32; Not Active = under 50% inhibition at 10 µM
Adenosine receptor A3 = biological target: T2, Adenosine receptor A3 (Homo sapiens, UniProt P0DMS8); type: cell membranes, CHO-K1, Membrane; conditions: cho-k1;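 note: radioligand binding assay with AB-MECA serving as the labeled ligand; in other assays of this panel Not Active means under 50% inhibition at 10 µM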
T2 sequence (P0DMS8 whole entry): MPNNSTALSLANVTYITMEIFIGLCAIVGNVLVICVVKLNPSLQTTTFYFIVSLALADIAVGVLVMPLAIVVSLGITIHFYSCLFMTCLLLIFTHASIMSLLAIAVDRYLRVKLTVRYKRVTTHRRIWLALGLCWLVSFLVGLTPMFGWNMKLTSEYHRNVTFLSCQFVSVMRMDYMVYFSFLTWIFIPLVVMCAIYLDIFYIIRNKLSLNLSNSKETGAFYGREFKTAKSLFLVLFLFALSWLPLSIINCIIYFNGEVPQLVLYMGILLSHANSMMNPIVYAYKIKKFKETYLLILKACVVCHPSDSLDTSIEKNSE

Sequence of Sodium-dependent dopamine transporter (Q01959 whole entry): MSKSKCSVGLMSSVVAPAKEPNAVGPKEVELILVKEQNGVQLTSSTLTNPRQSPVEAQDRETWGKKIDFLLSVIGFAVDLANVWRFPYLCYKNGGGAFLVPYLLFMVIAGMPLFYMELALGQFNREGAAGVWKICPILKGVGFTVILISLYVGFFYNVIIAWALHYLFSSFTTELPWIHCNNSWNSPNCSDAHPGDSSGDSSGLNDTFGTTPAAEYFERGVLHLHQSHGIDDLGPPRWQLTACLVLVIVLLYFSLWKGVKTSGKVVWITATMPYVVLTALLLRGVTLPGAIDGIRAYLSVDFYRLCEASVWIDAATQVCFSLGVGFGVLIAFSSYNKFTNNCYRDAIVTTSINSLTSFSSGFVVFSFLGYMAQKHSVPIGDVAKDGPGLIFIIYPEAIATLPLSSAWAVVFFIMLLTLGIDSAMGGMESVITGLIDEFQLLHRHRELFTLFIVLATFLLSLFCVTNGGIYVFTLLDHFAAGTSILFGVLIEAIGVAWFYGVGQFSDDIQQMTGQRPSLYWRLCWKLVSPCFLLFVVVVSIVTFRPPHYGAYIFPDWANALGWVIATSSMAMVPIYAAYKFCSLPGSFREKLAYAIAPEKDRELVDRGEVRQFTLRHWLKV
Sequence of Melanocortin receptor 3 (P41968 whole entry): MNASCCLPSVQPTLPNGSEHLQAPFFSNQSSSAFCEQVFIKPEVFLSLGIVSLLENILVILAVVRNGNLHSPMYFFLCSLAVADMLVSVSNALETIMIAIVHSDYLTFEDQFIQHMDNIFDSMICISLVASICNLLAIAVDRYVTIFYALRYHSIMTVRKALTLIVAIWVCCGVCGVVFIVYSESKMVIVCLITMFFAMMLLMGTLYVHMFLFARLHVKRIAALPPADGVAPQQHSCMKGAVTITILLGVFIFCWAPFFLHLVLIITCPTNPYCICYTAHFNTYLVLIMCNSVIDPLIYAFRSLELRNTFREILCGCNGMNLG

C#C[C@]1(OC(C)=O)CC[C@H]2[C@@H]3CCC4=CC(=O)CC[C@@H]4[C@H]3CC[C@@]21C [NORETHINDRONE ACETATE]
Not Active: IC50 [1] | Ki [1] | IC50 [2] | IC50 [3] | Ki [3] | IC50 [4] | IC50 (Melanocortin receptor 3) | IC50 [5] | Ki [5] | IC50 (Adenosine receptor A3)

COc1ccc2[nH]c([S+]([O-])Cc3ncc(C)c(OC)c3C)nc2c1 (centres undefined) [OMEPRAZOLE]
Not Active: IC50 [1] | Ki [1] | IC50 [2] | IC50 [3] | Ki [3] | IC50 [4] | IC50 (Melanocortin receptor 3) | IC50 [5] | Ki [5] | IC50 (Adenosine receptor A3)

Cc1nccn1CC1CCc2c(c3ccccc3n2C)C1=O (centres undefined) [ONDANSETRON]
Not Active: IC50 [1] | Ki [1] | IC50 [2] | IC50 [3] | Ki [3] | IC50 [4] | IC50 (Melanocortin receptor 3) | IC50 [5] | Ki [5] | IC50 (Adenosine receptor A3)

CCn1cc(C(=O)O)c(=O)c2cc(F)c(N3CCN(C)CC3)cc21 [PEFLOXACIN]
Not Active: IC50 [1] | Ki [1] | IC50 [2] | IC50 [3] | Ki [3] | IC50 [4] | IC50 (Melanocortin receptor 3) | IC50 [5] | Ki [5] | IC50 (Adenosine receptor A3)

CCCCOc1ccc(OCCCN2CCOCC2)cc1 [PRAMOXINE]
Not Active: IC50 [1] | Ki [1] | IC50 [2] | IC50 [3] | Ki [3] | IC50 [4] | IC50 (Melanocortin receptor 3) | IC50 [5] | Ki [5] | IC50 (Adenosine receptor A3)

O=C(C1CCCCC1)N1CC(=O)N2CCc3ccccc3C2C1 (centres undefined) [PRAZIQUANTEL]
Not Active: IC50 [1] | Ki [1] | IC50 [2] | IC50 [3] | Ki [3] | IC50 [4] | IC50 (Melanocortin receptor 3) | IC50 [5] | Ki [5] | IC50 (Adenosine receptor A3)

CCN(CC)CCOC(=O)c1ccc(N)cc1 [PROCAINE]
Not Active: IC50 [1] | Ki [1] | IC50 [2] | IC50 [3] | Ki [3] | IC50 [4] | IC50 (Melanocortin receptor 3) | IC50 [5] | Ki [5] | IC50 (Adenosine receptor A3)

CCCN(CCC)C(=O)C(CCC(=O)O)NC(=O)c1ccccc1 (centres undefined) [PROGLUMIDE]
Not Active: IC50 [1] | Ki [1] | IC50 [2] | IC50 [3] | Ki [3] | IC50 [4] | IC50 (Melanocortin receptor 3) | IC50 [5] | Ki [5] | IC50 (Adenosine receptor A3)

NC(=O)c1cnccn1 [PYRAZINAMIDE]
Not Active: IC50 [1] | Ki [1] | IC50 [2] | IC50 [3] | Ki [3] | IC50 [4] | IC50 (Melanocortin receptor 3) | IC50 [5] | Ki [5] | IC50 (Adenosine receptor A3)

OC(CCN1CCCCC1)(c1ccccc1)C1CCCCC1 (centres undefined) [TRIHEXYPHENIDYL]
Not Active: IC50 [1] | Ki [1] | IC50 [2] | IC50 [3] | Ki [3] | IC50 [4] | IC50 (Melanocortin receptor 3) | IC50 [5] | Ki [5] | IC50 (Adenosine receptor A3)

Cc1cc2cc3c(C)cc(=O)oc3c(C)c2o1 [TRIOXSALEN]
Not Active: IC50 [1] | Ki [1] | IC50 [2] | IC50 [3] | Ki [3] | IC50 [4] | IC50 (Melanocortin receptor 3) | IC50 [5] | Ki [5] | IC50 (Adenosine receptor A3)

CCCC(CCC)C(=O)O [VALPROIC ACID]
Not Active: IC50 [1] | Ki [1] | IC50 [2] | IC50 [3] | Ki [3] | IC50 [4] | IC50 (Melanocortin receptor 3) | IC50 [5] | Ki [5] | IC50 (Adenosine receptor A3)

CCC1=C[C@@H]2CN(C1)Cc1c([nH]c3ccccc13)[C@@](C(=O)OC)(c1cc3c(cc1OC)N(C)[C@H]1[C@@](O)(C(=O)OC)[C@H](OC(C)=O)[C@]4(CC)C=CCN5CC[C@]31[C@@H]54)C2 [VINORELBINE]
Not Active: IC50 [1] | Ki [1] | IC50 [2] | IC50 [3] | Ki [3] | IC50 [4] | IC50 (Melanocortin receptor 3) | IC50 [5] | Ki [5] | IC50 (Adenosine receptor A3)

CADMIUM DICHLORIDE
Not Active: IC50 [1] | Ki [1] | IC50 [2] | Ki [2] | IC50 [3] | Ki [3] | IC50 [4] | Ki [4] | IC50 (Melanocortin receptor 3) | Ki (Melanocortin receptor 3) | IC50 [5] | Ki [5] | IC50 (Adenosine receptor A3) | Ki (Adenosine receptor A3)

From ChEMBL document CHEMBL1909046, “DrugMatrix in vitro pharmacology data”
